Results published in ChEMBL document CHEMBL1201862, “PubChem BioAssay data set” (2004).
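In this assay, cells in 96-well plates receive the compound at five concentrations for 48 hours. Endpoints are linearly interpolated between the surrounding concentrations. At the GI50, growth is halved.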 The source made the active and inactive calls. No stated cut-off is given here; in the data, active = GI50 up to about 1.1 µM and inactive = higher.

Assays:
Assay in all cases: NCI-60 cell line screen, 48 h
CAKI-1 = system: CAKI-1
EKVX = system: EKVX
HL-60 = system: HL-60
HOP-62 = system: HOP-62
KM12 = system: KM12
NCI-H460 = system: NCI-H460
NCI-H522 = system: NCI-H522
OVCAR-3 = system: OVCAR-3
SF-295 = system: SF-295
SK-MEL-28 = system: SK-MEL-28
SR = system: SR
ACHN = system: ACHN
CCRF-CEM = system: CCRF-CEM
HCT-15 = system: HCT-15
SK-MEL-5 = system: SK-MEL-5
Hs-578T = system: Hs-578T
MDA-MB-231 = system: MDA-MB-231
NCI/ADR-RES = system: NCI/ADR-RES
PC-3 = system: PC-3

SMILES | GI50 (CAKI-1) | GI50 (EKVX) | GI50 (HL-60) | GI50 (HOP-62) | GI50 (KM12) | GI50 (NCI-H460) | GI50 (NCI-H522) | GI50 (OVCAR-3) | GI50 (SF-295) | GI50 (SK-MEL-28) | GI50 (SR) | GI50 (ACHN) | GI50 (CCRF-CEM) | GI50 (HCT-15) [µM] | GI50 (SK-MEL-5) | GI50 (Hs-578T) | GI50 (MDA-MB-231) | GI50 (NCI/ADR-RES) | GI50 (PC-3)
CC1=CC(N2C(=O)C(C)=CC2O)NC1=O (configuration not stated) | > 100 µM (inactive) | > 100 µM (inactive) | > 100 µM (inactive) | > 100 µM (inactive) | > 100 µM (inactive) | > 100 µM (inactive) | > 100 µM (inactive) | > 100 µM (inactive) | > 100 µM (inactive) | > 100 µM (inactive) | > 100 µM (inactive) |  |  |  |  |  |  |  | 
CC1=NC=C(O)c2ccccc2O1 |  | > 100 µM (inactive) | > 100 µM (inactive) | > 100 µM (inactive) | > 100 µM (inactive) | > 100 µM (inactive) |  | > 100 µM (inactive) | 45 µM (inactive) | > 100 µM (inactive) |  | > 100 µM (inactive) | > 100 µM (inactive) | > 100 |  |  |  |  | 
CCCCCCC(O)CC[C@H]1CCC[C@@H](C)N1 (some centres not stated) | > 100 µM (inactive) | > 100 µM (inactive) | > 100 µM (inactive) | > 31.6 µM (inactive) | > 10 µM (inactive) | > 100 µM (inactive) | > 100 µM (inactive) | > 10 µM (inactive) | > 31.6 µM (inactive) | > 31.6 µM (inactive) | > 100 µM (inactive) | > 100 µM (inactive) | > 100 µM (inactive) | > 31.6 | 55 µM (inactive) |  |  |  | 
O=c1nc(/C=C/c2ccccc2Cl)cc2n1CCN2CCO | > 100 µM (inactive) | > 100 µM (inactive) | > 100 µM (inactive) | > 100 µM (inactive) | 59.4 µM (inactive) | > 100 µM (inactive) | 24.3 µM (inactive) | 28.6 µM (inactive) | > 100 µM (inactive) | > 100 µM (inactive) | 50.1 µM (inactive) | > 100 µM (inactive) | 50.4 µM (inactive) | > 100 |  |  |  |  | 
O=S(=O)(N/N=C/c1ccc(/C=N/NS(=O)(=O)c2ccccc2)cc1)c1ccccc1 |  | 72.9 µM (inactive) | 23.2 µM (inactive) | 44.9 µM (inactive) | 35.8 µM (inactive) | 49.9 µM (inactive) |  | 30.7 µM (inactive) | 15.5 µM (inactive) | 81.7 µM (inactive) | 29 µM (inactive) | 55.8 µM (inactive) | 30.3 µM (inactive) | 44.1 | 39.4 µM (inactive) |  |  |  | 
Cn1cc(NC(=O)c2cc(NC(=O)CCCCCCCCCCC(=O)Nc3cc(C(=O)Nc4cc(C(=O)NCCC(=N)N)n(C)c4)n(C)c3)cn2C)cc1C(=O)NCCC(=N)N | 46.8 µM (inactive) | 31 µM (inactive) |  | 25.9 µM (inactive) | 12.4 µM (inactive) | 18.6 µM (inactive) | 12.1 µM (inactive) | 52.7 µM (inactive) | 50.8 µM (inactive) | > 10 µM (inactive) |  | 29.9 µM (inactive) | 50 µM (inactive) | 36.6 | 15.8 µM (inactive) |  |  |  | 
CN1CCCc2nc3ccccc3n2C1 | > 100 µM (inactive) | > 100 µM (inactive) | > 100 µM (inactive) | > 100 µM (inactive) | > 100 µM (inactive) | > 100 µM (inactive) | 97.7 µM (inactive) | > 100 µM (inactive) | > 100 µM (inactive) | > 100 µM (inactive) |  | > 100 µM (inactive) | 88.3 µM (inactive) | > 100 | > 100 µM (inactive) |  |  |  | 
Cc1cccc(C)c1NC(=O)C(=O)C(C#N)c1ccccc1 (configuration not stated) | > 100 µM (inactive) | > 100 µM (inactive) | > 100 µM (inactive) | > 100 µM (inactive) | > 100 µM (inactive) | > 100 µM (inactive) | > 100 µM (inactive) | > 100 µM (inactive) | > 100 µM (inactive) | > 100 µM (inactive) |  | > 100 µM (inactive) | > 100 µM (inactive) | > 100 | > 100 µM (inactive) |  |  |  | 
O=c1/c(=C/c2ccccc2O)sc2nc3ccccc3n12 | 34.6 µM (inactive) | 15.3 µM (inactive) | 4.9 µM (inactive) |  |  | 35 µM (inactive) |  | 29.7 µM (inactive) | 34.3 µM (inactive) | 23.6 µM (inactive) | 27.4 µM (inactive) | 45.6 µM (inactive) | 16.3 µM (inactive) | 21.6 | 30.7 µM (inactive) |  |  |  | 
COC(=O)CCSC(=O)Nc1ccc(/N=N/c2ccccc2)cc1 | 98.4 µM (inactive) | 39.5 µM (inactive) |  | > 100 µM (inactive) | 31.1 µM (inactive) | 31.6 µM (inactive) |  | 29.5 µM (inactive) | 47.9 µM (inactive) | > 100 µM (inactive) | 30.6 µM (inactive) | 29 µM (inactive) | 50.1 µM (inactive) | 36.1 | 51.9 µM (inactive) |  |  |  | 
CCCOc1ccc(/C(Cl)=C(\C=O)c2ccc(OC)c(OC)c2)cc1OCCC | 75.3 µM (inactive) | 10.9 µM (inactive) | 1.84 µM (inactive) | 19.8 µM (inactive) | 8.61 µM (inactive) | 7.1 µM (inactive) | 2 µM (inactive) | 23.9 µM (inactive) | 13.7 µM (inactive) | 7.59 µM (inactive) | 2.52 µM (inactive) | 9.31 µM (inactive) | 3.59 µM (inactive) | 5.47 | 10 µM (inactive) |  |  |  | 
CCOc1ccc(C(CN2CCOCC2)C(C)=O)cc1OC (configuration not stated) | 10.8 µM (inactive) | 22.6 µM (inactive) | 3.78 µM (inactive) | 21 µM (inactive) | 15.3 µM (inactive) | 18.4 µM (inactive) | 1.22 µM (inactive) |  | 39.6 µM (inactive) | 19.1 µM (inactive) |  | 14.2 µM (inactive) | 9.4 µM (inactive) | 10 | 20.1 µM (inactive) |  |  |  | 
C[C@H]1CN[C@@H]2[C@@H](C)[C@H]3[C@@H](C[C@H]4[C@@H]5CC[C@H]6C[C@@H](N)CC[C@]6(C)[C@H]5CC[C@]34C)O[C@@]2(O)C1 | 2.37 µM (inactive) | 3.34 µM (inactive) | 1.64 µM (inactive) |  | 1.91 µM (inactive) | 2.32 µM (inactive) | 2.24 µM (inactive) | 2.03 µM (inactive) | 2.92 µM (inactive) | 1.77 µM (inactive) |  | 2.65 µM (inactive) | 0.561 µM (active) | 1.38 | 3.04 µM (inactive) | 1.91 µM (inactive) | 1.9 µM (inactive) | 2.54 µM (inactive) | 2.79 µM (inactive)
COc1nc2c(nc(N)n2C2OCC(O)C(O)C2O)c(=O)n1C (configuration not stated) | > 100 µM (inactive) | > 100 µM (inactive) | > 100 µM (inactive) | > 100 µM (inactive) | > 100 µM (inactive) | > 100 µM (inactive) | > 100 µM (inactive) | > 100 µM (inactive) | > 100 µM (inactive) | > 100 µM (inactive) | > 100 µM (inactive) | > 100 µM (inactive) | > 100 µM (inactive) |  | > 100 µM (inactive) |  |  |  | 
Cc1cc(N(CCC#N)CCC#N)ccc1/C=C1/CN(N2C(=O)/C(=C/c3ccc(N(CCC#N)CCC#N)cc3C)N=C2c2ccccc2)C(c2ccccc2)=N1 | > 100 µM (inactive) | > 100 µM (inactive) | > 100 µM (inactive) | 34.6 µM (inactive) | > 100 µM (inactive) | > 100 µM (inactive) | > 100 µM (inactive) | > 100 µM (inactive) | 48.8 µM (inactive) | > 100 µM (inactive) | > 100 µM (inactive) | > 100 µM (inactive) | > 100 µM (inactive) | > 100 | > 100 µM (inactive) |  |  |  | 
CN1c2ccccc2N(C(=O)c2ccc(Cl)cc2)C(CC(=O)O)c2cccn21 (configuration not stated) | > 100 µM (inactive) | > 100 µM (inactive) | > 100 µM (inactive) | > 100 µM (inactive) | > 100 µM (inactive) | > 100 µM (inactive) | > 100 µM (inactive) | > 100 µM (inactive) | > 100 µM (inactive) | > 100 µM (inactive) |  | > 100 µM (inactive) | > 100 µM (inactive) | > 100 | > 100 µM (inactive) |  |  |  | 
N#C/C(=C\c1ccccc1Br)C(=O)c1ccccc1 | > 71.8 µM (inactive) | > 100 µM (inactive) | 1.28 µM (inactive) | 39.7 µM (inactive) | > 54.3 µM (inactive) | > 92.9 µM (inactive) | 58.2 µM (inactive) | > 41.1 µM (inactive) | 31 µM (inactive) | > 42.3 µM (inactive) | 13.3 µM (inactive) | > 53.8 µM (inactive) | 6.95 µM (inactive) | 8.34 | 16.5 µM (inactive) |  |  |  | 
Cc1cccc(NC(=O)c2cc3cc(/N=N/c4ccccc4Cl)ccc3oc2=O)c1 | 41.1 µM (inactive) | 53.1 µM (inactive) | > 100 µM (inactive) | 46.2 µM (inactive) | 15.4 µM (inactive) | 27 µM (inactive) | 22.3 µM (inactive) | 26.8 µM (inactive) | 40 µM (inactive) | 35.4 µM (inactive) |  | 40 µM (inactive) | 14 µM (inactive) | 27.4 | 19.8 µM (inactive) |  |  |  | 
O=S1(=O)OCCOS(=O)(=O)C1Cc1ccccc1 | 55.8 µM (inactive) | 33.7 µM (inactive) | 21.4 µM (inactive) | 52.8 µM (inactive) | > 100 µM (inactive) | 33.2 µM (inactive) | 45.2 µM (inactive) | 20.8 µM (inactive) | 53.8 µM (inactive) | > 100 µM (inactive) | 28.8 µM (inactive) | 51.5 µM (inactive) |  |  |  |  |  |  | 
Cn1c(=O)nc2n(-c3ccc(F)c(F)c3)c3ccccc3nc-2c1=O | 38.4 µM (inactive) | 4.82 µM (inactive) | 10.6 µM (inactive) | 44.2 µM (inactive) | 20.8 µM (inactive) | 7.11 µM (inactive) | 10.4 µM (inactive) | 3.13 µM (inactive) | 14.3 µM (inactive) |  |  | 8.79 µM (inactive) | 14.8 µM (inactive) | 7.33 | 8.18 µM (inactive) |  |  |  | 
